In US12023319B2, “Carboxylic acid aromatic amides” (priority 2016, dated 2024):
pIC50: −log10 of the molar value.

What was measured:
[1] = cited from earlier work
[2] = cited from earlier work; remark: listed apart in the source
[3] = cited from earlier work; remark: listed apart in the source
[4] = target: T1, human B1R (Homo sapiens, UniProt P46663); settings: human B1R-expressing CHO cells; cited from earlier work
T1 construct: host or cells: CHO cells
T1 sequence (P46663 1-353): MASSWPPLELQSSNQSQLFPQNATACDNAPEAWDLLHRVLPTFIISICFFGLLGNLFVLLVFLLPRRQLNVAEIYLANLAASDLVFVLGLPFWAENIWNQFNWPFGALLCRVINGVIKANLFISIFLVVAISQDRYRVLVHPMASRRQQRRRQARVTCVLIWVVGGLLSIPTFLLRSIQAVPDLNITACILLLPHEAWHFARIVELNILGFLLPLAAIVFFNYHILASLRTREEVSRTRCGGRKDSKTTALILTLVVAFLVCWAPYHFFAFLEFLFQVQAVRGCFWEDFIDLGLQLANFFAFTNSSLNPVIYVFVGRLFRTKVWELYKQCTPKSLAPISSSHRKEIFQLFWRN

[5] = target: T2, human Bradykinin B1 receptor (Homo sapiens, UniProt P46663); assay: Calcium flux assay (FLIPR), CHO-K1 cells expressing human Bradykinin B1 receptor, absence of 0.1% BSA (hB1 free IC50); assay type: cell-based; settings: absence of 0.1% BSA in assay buffer
T2 construct: host or cells: CHO-K1
T2 sequence (P46663 1-353): T1 sequence (P46663 1-353)
Outline: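 CHO-K1 hB1-D1 cells, dye-loaded, given compounds (8 concentrations, triplicate, 1% DMSO) 30 min at 28° C, then stimulated with selective B1 agonist peptide; Ca2+ fluorescence read at 538 nm on FLIPR. Peak response normalised to DMSO and 20 µM Lys-(Des-Arg-Leu)-Bradykinin full inhibition; IC50 fitted.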

[6] = target: T3, native human Bradykinin B1 receptor (Homo sapiens, UniProt P46663); assay: Calcium flux assay (FLIPR) with IMR-90 human fibroblasts expressing Bradykinin B1 receptor after IL-1beta induction (hB1 IMR-90); assay type: cell-based; settings: IMR-90 human fibroblasts after IL-1beta induction, read-out: hB1 IMR90 IC50
T3 construct: which express native human Bradykinin B1 receptor after induction with human IL-1beta; Coriell Institute; host or cells: IMR-90 human foetal lung fibroblasts, induced with human IL-1beta
T3 sequence (P46663 1-353): T1 sequence (P46663 1-353)
Protocol: Calcium Flux Assay (FLIPR) with Human Fibroblasts Expressing Bradykinin B1 Receptor (hB1 IMR-90)
The Calcium flux Assay was carried out utilising IMR-90 human foetal lung fibroblasts (American Type Culture Collection, Rockville, MD; and Coriell Institute, Camden, New Jersey), which express native human Bradykinin B1 receptor after induction with human IL-1beta.
The fibroblasts were cultured in complete growth media comprised of Dulbecco's modified Eagle's medium (DMEM; Sigma) containing 10% foetal bovine serum, 4 mM L-glutamine, and 1% nonessential amino acids. The cells were maintained in a humidified atmosphere with 5% CO2 at 37° C. and were sub-cultured at a ratio of 1:3, every other day.
For the assay, IMR-90 fibroblasts were harvested using TrypLE Express (GIBCO/Invitrogen) and seeded into 384-well plates (Corning Cellbinding Surface, Cat. 3683) at a density of 15000 cells/well. The following day, cells were treated with 0.35 ng/mL human IL-1beta in 10% FBS/MEM for 3 h to up-regulate Bradykinin B1 receptor. Induced cells were loaded with fluorescent calcium indicator by incubation with 2.5 μM Fluo-4/AM (Invitrogen) at 37° C., 5% CO2 for 2 h in the presence of 2.5 mM probenecid in 1% FBS/MEM. […] Compound examples were assayed at 8 concentrations in triplicate. […] A peptide antagonist Lys-(Des-Arg-Leu)-Bradykinin (Bachem, Brackley) at 20 µM was used to determine the full inhibition as control. IC50 values were determined by the same way described for the FLI PR assay with recombinant cells.

[7] = test system: Male Sprague Dawley rats; assay: Rat CFA in vivo model (mechanical hyperalgesia, paw withdrawal threshold); settings: for Paw withdrawal threshold 2 hours post-compound: 2 hours post-compound (Table 5)
Protocol: Male Sprague Dawley rats were used. Mechanical hyperalgesia was induced by injecting 25 μL of Complete Freund's Adjuvant (CFA) into the plantar surface of one hind paw. Mechanical hyperalgesia was measured using the Pressure Application Measurement apparatus (Ugo Basile, Gemonio, Italy). Briefly, a linearly increasing pressure was applied to an area of ˜50 mm^2 of the plantar side of the hind paw until a behavioural response (paw withdrawal) was observed or until the pressure reached 1000 gf. The pressure at which the behavioural response occurred was recorded as the “Paw Withdrawal Threshold” (PWT). Both CFA-injected and contralateral PWTs were determined for each rat, in each treatment group and at each time point of the studies. The Compound Examples were administered orally in a vehicle of dimethylsulfoxide (DMSO), Polyethylenglycol (PEG) and 2-hydroxypropyl-beta-cyclodextrin (HPCD) (v/v/v=3:20:77). Rats received a first dose of […] of Compound Example per kg body weight 1 hour before CFA injection and a second dose 24 hours after the CFA injection. Mechanical hyperalgesia testing was performed approximately 2 hours before CFA injection, then 2 and 4 hours after the second dose of Compound Example (i.e. 26 and 28 hours after CFA treatment). Data were expressed as the mean±S.D. Area Under the Curve (AUC) of PWTs (defined in table 3 as “AUC of Paw withdrawal threshold (AUC 0-4 hours) post-vehicle” with respect to vehicle group or “AUC of Paw withdrawal threshold (AUC 0-4 hours) post-drug” with respect to Compound Example). Data were analysed by performing a one-way ANOVA followed by a Dunnett's post hoc test. For p values less than 0.05 the results were deemed to be statistically significant.

[8] = due to metabolic lability; cited from earlier work

C[C@@H]1CC[C@H](C)N1C(=O)c1ccc([C@@H](C)NC(=O)C2(NC(=O)c3cc(F)cc(C(F)(F)F)c3)CC2)c(F)c1
aqueous solubility [1]: reasonable
pharmacokinetic profile in rat [2]: reasonable
human metabolic stability [3]: poor

COC(=O)c1c(Cl)cccc1N1CCC(CNC(=O)C2(NC(=O)C(F)(F)F)CC2)CC1
binding affinity [4]: highest

O=C(O)c1cc(NC(=O)C2(c3ccc(OC(F)(F)F)cc3F)CC2)cc(F)c1-c1cnn(C2CCC2)c1 [Example 43, 2-(1-Cyclobutyl-1H-pyrazol-4-yl)-3-fluoro-5-[({1-[2-fluoro-4-(trifluoromethoxy)phenyl]cyclopropyl}carbonyl)amino]benzoic acid]
pIC50 [5]: 8.15
pIC50 [6]: 8.55
Paw withdrawal threshold 4 hours post-compound ([7]; 0.75 mg/kg p.o.): 599 ± 28 gf (ns)
Paw withdrawal threshold 4 hours post-compound ([7]; 3 mg/kg p.o.): 610 ± 21 gf (ns)
Paw withdrawal threshold 4 hours post-compound ([7]; 15 mg/kg p.o.): 709 ± 18 gf (****)

CC(C)n1cc(-c2ccc(NC(=O)C3(c4ccc(OC(F)(F)F)cc4F)CC3)cc2C(=O)O)cn1 [Example 71, 5-[({1-[2-Fluoro-4-(trifluoromethoxy)phenyl]cyclopropyl}carbonyl)amino]-2-[1-(propan-2-yl)-1H-pyrazol-4-yl]benzoic acid]
pIC50 [5]: 7.33
pIC50 [6]: 7.55
Paw withdrawal threshold 2 hours post-compound ([7]; 0.75 mg/kg p.o.): 591 ± 20 gf (ns)
Paw withdrawal threshold 2 hours post-compound ([7]; 3 mg/kg p.o.): 628 ± 17 gf (ns)
Paw withdrawal threshold 2 hours post-compound ([7]; 10 mg/kg p.o.): 742 ± 49 gf (****)

O=C(O)c1cc(NC(=O)C2(c3ccc(OC(F)(F)F)cc3F)CC2)cc(F)c1-c1ccc(C(F)F)nc1 [Example 95, 2-[6-(Difluoromethyl)pyridin-3-yl]-3-fluoro-5-[({1-[2-fluoro-4-(trifluoromethoxy)phenyl]cyclopropyl}carbonyl)amino]benzoic acid]
pIC50 [5]: 7.89
pIC50 [6]: 7.68

CCC(F)(F)c1ccc(-c2c(F)cc(NC(=O)C3(c4ccc(C(F)(F)F)cc4F)CC3)cc2C(=O)O)cn1 [Example 96, 2-[6-(1,1-Difluoropropyl)pyridin-3-yl]-3-fluoro-5-[({1-[2-fluoro-4-(trifluoromethyl)phenyl]cyclopropyl}carbonyl)amino]benzoic acid]
pIC50 [5]: 8.09
pIC50 [6]: 7.60

CCC(F)(F)c1ccc(-c2c(F)cc(NC(=O)C3(c4ccc(OC(F)(F)F)cc4F)CC3)cc2C(=O)O)cn1 [Example 97, 2-[6-(1,1-Difluoropropyl)pyridin-3-yl]-3-fluoro-5-[({1-[2-fluoro-4-(trifluoromethoxy)phenyl]cyclopropyl}carbonyl)amino]benzoic acid]
pIC50 [5]: 8.00
pIC50 [6]: 7.60

O=C(O)c1cc(NC(=O)C2(c3ccc(C(F)(F)F)cc3F)CC2)cc(Cl)c1-c1cnn(C2CCC2)c1 [Example 100, 3-Chloro-2-(1-cyclobutyl-1H-pyrazol-4-yl)-5-[({1-[2-fluoro-4-(trifluoromethyl)phenyl]cyclopropyl}carbonyl)amino]benzoic acid]
pIC50 [5]: 8.05
pIC50 [6]: 7.89

O=C(O)c1cc(NC(=O)C2(c3ccc(OC(F)(F)F)cc3F)CC2)cc(Cl)c1-c1cnn(C2CCC2)c1 [Example 101, 3-Chloro-2-(1-cyclobutyl-1H-pyrazol-4-yl)-5-[({1-[2-fluoro-4-(trifluoromethoxy)phenyl]cyclopropyl}carbonyl)amino]benzoic acid]
pIC50 [5]: 8.46
pIC50 [6]: 8.26

CCC(F)(F)c1ccc(-c2c(Cl)cc(NC(=O)C3(c4ccc(C(F)(F)F)cc4F)CC3)cc2C(=O)O)cn1 [Example 105, 3-Chloro-2-[6-(1,1-difluoropropyl)pyridin-3-yl]-5-[({1-[2-fluoro-4-(trifluoromethyl)phenyl]cyclopropyl}carbonyl)amino]benzoic acid]
pIC50 [5]: 7.77
pIC50 [6]: 7.13

CCC(F)(F)c1ccc(-c2c(Cl)cc(NC(=O)C3(c4ccc(OC(F)(F)F)cc4F)CC3)cc2C(=O)O)cn1 [Example 106, 3-Chloro-2-[6-(1,1-difluoropropyl)pyridin-3-yl]-5-[({1-[2-fluoro-4-(trifluoromethoxy)phenyl]cyclopropyl}carbonyl)amino]benzoic acid]
pIC50 [5]: 8.08
pIC50 [6]: 7.46

Cc1cc(NC(=O)C2(c3ccc(C(F)(F)F)cc3F)CC2)cc(C(=O)O)c1-c1cnn(C2CCC2)c1 [Example 107, 2-(1-Cyclobutyl-1H-pyrazol-4-yl)-5-[({1-[2-fluoro-4-(trifluoromethyl)phenyl]cyclopropyl}carbonyl)amino]-3-methylbenzoic acid]
pIC50 [5]: 7.66
pIC50 [6]: 7.44

Cc1cc(NC(=O)C2(c3ccc(OC(F)(F)F)cc3F)CC2)cc(C(=O)O)c1-c1cnn(C2CCC2)c1 [Example 108, 2-(1-Cyclobutyl-1H-pyrazol-4-yl)-5-[({1-[2-fluoro-4-(trifluoromethoxy)phenyl]cyclopropyl}carbonyl)amino]-3-methylbenzoic acid]
pIC50 [5]: 7.85
pIC50 [6]: 7.89

C[C@@H](NC(=O)C1(NC(=O)C(F)(F)F)CC1)c1ccc(-c2cccc(Cl)c2C(=O)O)cc1F [MK-0686]
pharmacokinetic profile [8]: suboptimal
